Reference: US6620828B2, “Thiazole compounds and pharmaceutical compositions for inhibiting protein kinases and methods for their use” (Agouron Pharmaceuticals, Inc., priority 1999, dated 2003)

Target: T1, FL-CHK1 (Homo sapiens, UniProt O14757)
T1 construct: C-terminally His-tagged full-length human CHK1 (FL-CHK1); 6xHis (C); made in house; host or cells: baculovirus/insect cells
T1 sequence (O14757 1-476): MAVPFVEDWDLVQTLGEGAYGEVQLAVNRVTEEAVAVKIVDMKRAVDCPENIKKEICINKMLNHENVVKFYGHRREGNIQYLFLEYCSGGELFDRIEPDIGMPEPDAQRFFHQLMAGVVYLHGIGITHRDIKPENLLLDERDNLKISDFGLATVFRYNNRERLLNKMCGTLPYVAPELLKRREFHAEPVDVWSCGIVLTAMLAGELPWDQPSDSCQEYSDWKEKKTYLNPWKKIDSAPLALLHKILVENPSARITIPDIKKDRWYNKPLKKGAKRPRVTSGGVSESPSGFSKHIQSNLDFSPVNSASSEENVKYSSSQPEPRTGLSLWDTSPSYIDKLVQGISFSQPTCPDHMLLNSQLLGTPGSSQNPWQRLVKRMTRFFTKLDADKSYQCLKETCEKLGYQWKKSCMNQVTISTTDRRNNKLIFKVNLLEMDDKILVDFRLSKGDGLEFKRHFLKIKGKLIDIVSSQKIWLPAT
Experiment: CHK1 assay
Format: biochemical
Settings: 20 μM; combinatorial library compounds
Outline: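 Full-length human CHK1 with C-terminal 6×His tag, made in baculovirus/insect cells, 10 nM, phosphorylating 0.125 mM Syntide-2 with 0.15 mM ATP in 50 mM Tris pH 7.5, 25 mM MgCl2, 400 mM NaCl. PK/LDH-coupled NADH oxidation read at 340 nm. Ki from initial rates over varied compound concentrations.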

Going from `CC(C)(C)c1cc(-c2csc(-c3sc(Nc4ccc(S(N)(=O)=O)cc4)nc3N)n2)cc(C(C)(C)C)c1O` to `Nc1nc(Nc2ccc(S(N)(=O)=O)cc2)sc1-c1nc(-c2cccc(Br)c2)cs1`, the inhibition at 20 µM falls from 17.5% to 16.4%.

First: CN(C)c1ccc(Nc2nc(N)c(-c3nc(-c4cc(-c5ccc(Cl)c(Cl)c5)no4)cs3)s2)cc1
Second: Cc1cc(-c2csc(-c3sc(Nc4ccc(N(C)C)cc4)nc3N)n2)ccc1Cl
The inhibition at 20 µM of the first is lower: -2.8% for the first, 16.6% for the second.

Going from `COc1ccc(-c2csc(-c3sc(Nc4ccc(S(N)(=O)=O)cc4)nc3N)n2)c(OC)c1` to `COc1ccc(-c2csc(-c3sc(Nc4ccc(C(C)C)cc4)nc3N)n2)c(OC)c1`, the inhibition at 20 µM rises from -3.9% to 1.8%.

Compared with `COc1cccc(-c2csc(-c3sc(Nc4ccc(N(C)C)cc4)nc3N)n2)c1`, `CN(C)c1ccc(Nc2nc(N)c(-c3nc(-c4ccc(F)c(F)c4)cs3)s2)cc1` is lower in inhibition at 20 µM: 7.8% for the first, 4.2% for the second.

Going from `Nc1nc(Nc2ccc(S(N)(=O)=O)cc2)sc1-c1nc(-c2cc(-c3ccccc3)no2)cs1` to `Nc1nc(Nc2ccc(S(N)(=O)=O)cc2)sc1-c1nc(-c2ccc3oc4ccccc4c3c2)cs1`, the inhibition at 20 µM rises from -1.2% to 18.3%.

First: CN(C)c1ccc(Nc2nc(N)c(-c3nc(-c4ccc(CC(=O)O)s4)cs3)s2)cc1
Second: CC(C)c1ccc(Nc2nc(N)c(-c3nc(-c4cc(Br)c(Cl)s4)cs3)s2)cc1
The inhibition at 20 µM of the first is higher: 38.1% for the first, 9.2% for the second.

Going from `CC(C)c1ccc(Nc2nc(N)c(-c3nc(-c4ccc(Cl)cc4Cl)cs3)s2)cc1` to `CC(C)c1ccc(Nc2nc(N)c(-c3nc(-c4csc5ccccc45)cs3)s2)cc1`, the inhibition at 20 µM falls from 21.4% to -4.3%.

First: CC(=O)Oc1ccccc1-c1csc(-c2sc(Nc3ccc(S(N)(=O)=O)cc3)nc2N)n1
Second: CC(C)c1ccc(Nc2nc(N)c(-c3nc(-c4ccc5c(c4)OCCO5)cs3)s2)cc1
The inhibition at 20 µM of the first is lower: -7.3% for the first, 23.8% for the second.

Going from `COc1ccc(-c2csc(-c3sc(Nc4ccc(C(C)C)cc4)nc3N)n2)cc1` [drawing 488] to `CN(C)c1ccc(Nc2nc(N)c(-c3nc(-c4ccccc4)cs3)s2)cc1` [drawing 561], the “CHK1 % Inhibition at 20 μM” value rises from 14.2% to 17.5%.

Target: T2, phosphorylated VEGF-R2Δ50 (FLVK-P) (Homo sapiens, UniProt P35968, DEL940-989/E990V)
T2 construct: VEGF-R2Δ50 contains residues 806-939 and 990-1171; made in house; host or cells: baculovirus/insect cells
Experiment: VEGF-R2 coupled spectrophotometric (FLVK-P) assay
Format: biochemical
Settings: 20 μM; combinatorial library compounds
Outline: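 Baculovirus-expressed human VEGF-R2Δ50 (residues 806-939/990-1171, E990V) was autophosphorylated with 3 mM ATP, 40 mM MgCl2 for 2 h at 4° C. ADP formation was coupled via PK/LDH to NADH oxidation, read at 340 nm, with 5.1 mM poly(E4Y1), 1 mM ATP, 25 mM MgCl2, Hepes pH 7.5. Ki came from activity across compound concentrations.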

T2 sequence (P35968 with tags, fused parts or gaps DEL940-989/E990V limits assumed): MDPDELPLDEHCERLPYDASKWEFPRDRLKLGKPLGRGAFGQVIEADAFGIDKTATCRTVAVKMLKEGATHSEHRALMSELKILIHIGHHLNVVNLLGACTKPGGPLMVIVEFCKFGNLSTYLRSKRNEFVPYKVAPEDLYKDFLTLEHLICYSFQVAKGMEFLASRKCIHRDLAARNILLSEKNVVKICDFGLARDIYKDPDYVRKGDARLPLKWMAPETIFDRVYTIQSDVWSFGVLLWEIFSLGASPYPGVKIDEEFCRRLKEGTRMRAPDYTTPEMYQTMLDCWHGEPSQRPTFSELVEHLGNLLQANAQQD

Going from `COc1ccc(-c2csc(-c3sc(Nc4ccc(C(C)C)cc4)nc3N)n2)cc1` [drawing 488] to `CN(C)c1ccc(Nc2nc(N)c(-c3nc(-c4ccccc4)cs3)s2)cc1` [drawing 561], the “VEGF % inhibition at 20 μM” value rises from 12% to 30%.

Same assay, conditions: read-out: VEGF % inhibition at 20 μM, 20 μM; combinatorial library compounds

First: CC(C)(C)c1cc(-c2csc(-c3sc(Nc4ccc(S(N)(=O)=O)cc4)nc3N)n2)cc(C(C)(C)C)c1O
Second: Nc1nc(Nc2ccc(S(N)(=O)=O)cc2)sc1-c1nc(-c2cccc(Br)c2)cs1
The inhibition at 20 µM of the first is lower: -9% for the first, 15% for the second.

First: CN(C)c1ccc(Nc2nc(N)c(-c3nc(-c4cc(-c5ccc(Cl)c(Cl)c5)no4)cs3)s2)cc1
Second: Cc1cc(-c2csc(-c3sc(Nc4ccc(N(C)C)cc4)nc3N)n2)ccc1Cl
The inhibition at 20 µM of the first is lower: 1% for the first, 2% for the second.

First: COc1ccc(-c2csc(-c3sc(Nc4ccc(S(N)(=O)=O)cc4)nc3N)n2)c(OC)c1
Second: COc1ccc(-c2csc(-c3sc(Nc4ccc(C(C)C)cc4)nc3N)n2)c(OC)c1
The inhibition at 20 µM of the first is higher: 3% for the first, -10% for the second.

First: COc1cccc(-c2csc(-c3sc(Nc4ccc(N(C)C)cc4)nc3N)n2)c1
Second: CN(C)c1ccc(Nc2nc(N)c(-c3nc(-c4ccc(F)c(F)c4)cs3)s2)cc1
The inhibition at 20 µM of the first is higher: 10% for the first, 8% for the second.

Going from `Nc1nc(Nc2ccc(S(N)(=O)=O)cc2)sc1-c1nc(-c2cc(-c3ccccc3)no2)cs1` to `Nc1nc(Nc2ccc(S(N)(=O)=O)cc2)sc1-c1nc(-c2ccc3oc4ccccc4c3c2)cs1`, the inhibition at 20 µM rises from -1% to 18%.

Going from `CN(C)c1ccc(Nc2nc(N)c(-c3nc(-c4ccc(CC(=O)O)s4)cs3)s2)cc1` to `CC(C)c1ccc(Nc2nc(N)c(-c3nc(-c4cc(Br)c(Cl)s4)cs3)s2)cc1`, the inhibition at 20 µM falls from 28% to 25%.

Going from `CC(C)c1ccc(Nc2nc(N)c(-c3nc(-c4ccc(Cl)cc4Cl)cs3)s2)cc1` to `CC(C)c1ccc(Nc2nc(N)c(-c3nc(-c4csc5ccccc45)cs3)s2)cc1`, the inhibition at 20 µM rises from 23% to 25%.

Going from `CC(=O)Oc1ccccc1-c1csc(-c2sc(Nc3ccc(S(N)(=O)=O)cc3)nc2N)n1` to `CC(C)c1ccc(Nc2nc(N)c(-c3nc(-c4ccc5c(c4)OCCO5)cs3)s2)cc1`, the inhibition at 20 µM falls from 33% to 14%.

Target: T3, CDK4/Cyclin D3 complex (Homo sapiens, UniProt P11802)
T3 construct: made in house; host or cells: insect cells co-infected with baculovirus vectors
Experiment: CDK4/Cyclin D assay
Format: biochemical
Settings: 1.0 μM; combinatorial library compounds
Outline: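 Insect-cell-expressed CDK4/cyclin D3 (50 nM) phosphorylating His-tagged Rb fragment (residues 386-928) with 25 μM [^32P]ATP in HEPES pH 7.4, MgCl2, 2% DMSO; 20 min at 30 °C, EDTA stop. Filter-captured 32P by phosphorimager; apparent Ki from competitive or tight-binding inhibition fits.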

T3 sequence (P11802 whole entry): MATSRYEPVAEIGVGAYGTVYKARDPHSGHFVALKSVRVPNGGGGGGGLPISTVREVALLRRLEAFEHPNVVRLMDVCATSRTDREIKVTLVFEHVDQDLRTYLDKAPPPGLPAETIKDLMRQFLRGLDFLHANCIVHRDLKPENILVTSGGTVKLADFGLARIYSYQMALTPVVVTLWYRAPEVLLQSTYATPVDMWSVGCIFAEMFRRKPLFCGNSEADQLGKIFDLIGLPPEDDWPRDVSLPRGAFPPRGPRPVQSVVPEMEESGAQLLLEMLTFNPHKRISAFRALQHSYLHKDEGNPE
T3 sequence (P30281 whole entry partner): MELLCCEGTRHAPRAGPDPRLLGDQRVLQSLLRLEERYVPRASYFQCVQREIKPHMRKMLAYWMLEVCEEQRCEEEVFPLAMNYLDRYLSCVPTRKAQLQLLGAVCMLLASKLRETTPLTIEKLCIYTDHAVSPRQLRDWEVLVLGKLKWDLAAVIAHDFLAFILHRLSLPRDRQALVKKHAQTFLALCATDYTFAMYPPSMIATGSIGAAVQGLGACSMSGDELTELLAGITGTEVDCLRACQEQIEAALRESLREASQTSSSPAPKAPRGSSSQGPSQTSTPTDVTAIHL

Going from `CC(C)(C)c1cc(-c2csc(-c3sc(Nc4ccc(S(N)(=O)=O)cc4)nc3N)n2)cc(C(C)(C)C)c1O` to `Nc1nc(Nc2ccc(S(N)(=O)=O)cc2)sc1-c1nc(-c2cccc(Br)c2)cs1`, the inhibition at 1 µM falls from 17% to -0.3%.

Compared with `CN(C)c1ccc(Nc2nc(N)c(-c3nc(-c4cc(-c5ccc(Cl)c(Cl)c5)no4)cs3)s2)cc1`, `Cc1cc(-c2csc(-c3sc(Nc4ccc(N(C)C)cc4)nc3N)n2)ccc1Cl` is higher in inhibition at 1 µM: -17.5% for the first, 15.2% for the second.

First: COc1ccc(-c2csc(-c3sc(Nc4ccc(S(N)(=O)=O)cc4)nc3N)n2)c(OC)c1
Second: COc1ccc(-c2csc(-c3sc(Nc4ccc(C(C)C)cc4)nc3N)n2)c(OC)c1
The inhibition at 1 µM of the first is lower: -1.2% for the first, 38.2% for the second.

Going from `COc1cccc(-c2csc(-c3sc(Nc4ccc(N(C)C)cc4)nc3N)n2)c1` to `CN(C)c1ccc(Nc2nc(N)c(-c3nc(-c4ccc(F)c(F)c4)cs3)s2)cc1`, the inhibition at 1 µM rises from -20.3% to 8.1%.

Going from `Nc1nc(Nc2ccc(S(N)(=O)=O)cc2)sc1-c1nc(-c2cc(-c3ccccc3)no2)cs1` to `Nc1nc(Nc2ccc(S(N)(=O)=O)cc2)sc1-c1nc(-c2ccc3oc4ccccc4c3c2)cs1`, the inhibition at 1 µM rises from -0.5% to 57.5%.

First: CN(C)c1ccc(Nc2nc(N)c(-c3nc(-c4ccc(CC(=O)O)s4)cs3)s2)cc1
Second: CC(C)c1ccc(Nc2nc(N)c(-c3nc(-c4cc(Br)c(Cl)s4)cs3)s2)cc1
The inhibition at 1 µM of the first is lower: 69.4% for the first, 84.7% for the second.

First: CC(C)c1ccc(Nc2nc(N)c(-c3nc(-c4ccc(Cl)cc4Cl)cs3)s2)cc1
Second: CC(C)c1ccc(Nc2nc(N)c(-c3nc(-c4csc5ccccc45)cs3)s2)cc1
The inhibition at 1 µM of the first is higher: 81.4% for the first, 72% for the second.

Compared with `CC(=O)Oc1ccccc1-c1csc(-c2sc(Nc3ccc(S(N)(=O)=O)cc3)nc2N)n1`, `CC(C)c1ccc(Nc2nc(N)c(-c3nc(-c4ccc5c(c4)OCCO5)cs3)s2)cc1` is higher in inhibition at 1 µM: -4.8% for the first, 50.6% for the second.

Going from `COc1ccc(-c2csc(-c3sc(Nc4ccc(C(C)C)cc4)nc3N)n2)cc1` [drawing 488] to `CN(C)c1ccc(Nc2nc(N)c(-c3nc(-c4ccccc4)cs3)s2)cc1` [drawing 561], the “CDK4 % Inhibition at 1.0 μM” value falls from 79% to 65.1%.

Target: CDK2/Cyclin A complex (Homo sapiens, UniProt P24941)
Experiment: CDK2/Cyclin A assay
Format: biochemical
Settings: 1.0 μM; combinatorial library compounds
Outline: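 Radiometric assay: 150 nM CDK2/cyclin A (insect-cell CDK2, truncated cyclin A) phosphorylates His-tagged Rb fragment (residues 386-928) with 25 μM ATP plus [32P]ATP, pH 7.4 HEPES, 2% DMSO, 30 °C for 20 min. Filter-captured product counted by phosphorimager; apparent Ki from competitive or tight-binding inhibition fits.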

Going from `CC(C)(C)c1cc(-c2csc(-c3sc(Nc4ccc(S(N)(=O)=O)cc4)nc3N)n2)cc(C(C)(C)C)c1O` to `Nc1nc(Nc2ccc(S(N)(=O)=O)cc2)sc1-c1nc(-c2cccc(Br)c2)cs1`, the inhibition at 1 µM falls from 25% to 17.6%.

Compared with `CN(C)c1ccc(Nc2nc(N)c(-c3nc(-c4cc(-c5ccc(Cl)c(Cl)c5)no4)cs3)s2)cc1`, `Cc1cc(-c2csc(-c3sc(Nc4ccc(N(C)C)cc4)nc3N)n2)ccc1Cl` is lower in inhibition at 1 µM: 12.6% for the first, 11.7% for the second.

Going from `COc1ccc(-c2csc(-c3sc(Nc4ccc(S(N)(=O)=O)cc4)nc3N)n2)c(OC)c1` to `COc1ccc(-c2csc(-c3sc(Nc4ccc(C(C)C)cc4)nc3N)n2)c(OC)c1`, the inhibition at 1 µM falls from 12.5% to -22.6%.

First: COc1cccc(-c2csc(-c3sc(Nc4ccc(N(C)C)cc4)nc3N)n2)c1
Second: CN(C)c1ccc(Nc2nc(N)c(-c3nc(-c4ccc(F)c(F)c4)cs3)s2)cc1
The inhibition at 1 µM of the first is higher: 16.3% for the first, 3.3% for the second.

First: Nc1nc(Nc2ccc(S(N)(=O)=O)cc2)sc1-c1nc(-c2cc(-c3ccccc3)no2)cs1
Second: Nc1nc(Nc2ccc(S(N)(=O)=O)cc2)sc1-c1nc(-c2ccc3oc4ccccc4c3c2)cs1
The inhibition at 1 µM of the first is lower: 12% for the first, 45.7% for the second.

First: CN(C)c1ccc(Nc2nc(N)c(-c3nc(-c4ccc(CC(=O)O)s4)cs3)s2)cc1
Second: CC(C)c1ccc(Nc2nc(N)c(-c3nc(-c4cc(Br)c(Cl)s4)cs3)s2)cc1
The inhibition at 1 µM of the first is lower: 6.3% for the first, 26% for the second.

Going from `CC(C)c1ccc(Nc2nc(N)c(-c3nc(-c4ccc(Cl)cc4Cl)cs3)s2)cc1` to `CC(C)c1ccc(Nc2nc(N)c(-c3nc(-c4csc5ccccc45)cs3)s2)cc1`, the inhibition at 1 µM falls from 25.7% to 9.3%.

Compared with `CC(=O)Oc1ccccc1-c1csc(-c2sc(Nc3ccc(S(N)(=O)=O)cc3)nc2N)n1`, `CC(C)c1ccc(Nc2nc(N)c(-c3nc(-c4ccc5c(c4)OCCO5)cs3)s2)cc1` is lower in inhibition at 1 µM: 25.4% for the first, 22% for the second.

First: COc1ccc(-c2csc(-c3sc(Nc4ccc(C(C)C)cc4)nc3N)n2)cc1 [drawing 488]
Second: CN(C)c1ccc(Nc2nc(N)c(-c3nc(-c4ccccc4)cs3)s2)cc1 [drawing 561]
The “CDK2 % Inhibition at 1.0 μM” value of the first is higher: 38.3% for the first, 19.7% for the second.
